# US4775674A, “Imidazoquinolinylether derivatives useful as phosphodiesterase and blood aggregation inhibitors” (Bristol-Myers Company, priority 1986, dated 1988)
# Like-named read-outs stand apart in the source and are kept apart here.
# Assays:
# [1] = system: adenosine diphosphate (ADP)-induced platelet aggregation; experiment: In vitro inhibition of platelet aggregation, ADP-induced (rabbit platelet rich plasma); assay type: cell-based; settings: Oryctolagus cuniculus, ADP 0.5 mcg/ml, read-out: Platelet Inhibition In Vitro - Rabbit PRP EC50 vs. ADP
# Experimental: (§1) The aggregometer method of Born (1), as modified by Mustard, et al. (2) was used to assess the in vitro activity of the various compounds as to inhibition of adenosine diphosphate (ADP) and collagen-induced platelet aggregation. Platelet rich plasma (PRP) was separated by centrifugation from citrated (3.8 percent) rabbit blood. […] The various compounds tested were dissolved in dimethylsulfoxide (DMSO) so that 5 mcl added to the platelet rich plasma would yield the desired test concentration. Vehicle control trials were done and compared with aggregation induced in platelet rich plasma containing various concentrations of the test compounds. Dose response curves were obtained and Effective Concentration (EC50) values calculated.
# [2] = system: collagen-induced platelet aggregation; experiment: In vitro inhibition of platelet aggregation, collagen-induced (rabbit platelet rich plasma); assay type: cell-based; settings: Oryctolagus cuniculus, collagen suspension 0.05 ml, read-out: Platelet Inhibition In Vitro - Rabbit PRP EC50 vs. collagen
# Experimental: as §1
# [3] = system: platelet aggregation (Ex Vivo vs. ADP); experiment: Inhibition of platelet aggregation following oral administration (Ex vivo); assay type: in vivo; settings: Rattus norvegicus, rats, oral by gavage, 2 hours after dosing
# Experimental: This test is sometimes referred to in the art as an Ex vivo method and was initially described by Fleming, et al., Arch. Int. Pharmacodyn. Ther., 199, 164 (1972). Briefly, the assay is essentially carried out as follows.
# Aggregometry is performed in vitro as previously described on platelet rich plasma samples obtained from rats dosed with either test compounds or the vehicle. In all cases, activity is determined 2 hours after the drug is administered orally at various doses by gavage as a suspension in […] plus a few drops of Tween 20.
# [4] = system: ferrets (right ventricular contractile force, blood pressure); experiment: In vivo inotropic activity in ferrets; design: species or system ferret; settings: Mustela putorius, 1 h, anesthetized ferret, intraduodenal, 60 minutes
# Experimental: This test is carried out in ferrets as follows. Fasted anesthetized ferrets are instrumented to study hemodynamic parameters as well as right ventricular contractile force (RVCF) using a Walton-Brodie open strain guage arch. Drugs are administered intraduodenally as solutions in DMSO (1 mL or less) and effects on myocardial contractile force and other parameters are monitored for 60 minutes after dosing. Changes in contractile force in response to drug treatment are expressed in terms of percent change from predose control.
# [5] = biological target: T1, cAMP phosphodiesterase (human platelets) (Homo sapiens, UniProt Q14432); experiment: Inhibition of cyclic AMP phosphodiesterase; assay type: biochemical; settings: PDE from human platelets
# T1 construct: enzynme obtained from human platelets; from tissue; host or cells: human platelets
# T1 sequence (Q14432 whole entry): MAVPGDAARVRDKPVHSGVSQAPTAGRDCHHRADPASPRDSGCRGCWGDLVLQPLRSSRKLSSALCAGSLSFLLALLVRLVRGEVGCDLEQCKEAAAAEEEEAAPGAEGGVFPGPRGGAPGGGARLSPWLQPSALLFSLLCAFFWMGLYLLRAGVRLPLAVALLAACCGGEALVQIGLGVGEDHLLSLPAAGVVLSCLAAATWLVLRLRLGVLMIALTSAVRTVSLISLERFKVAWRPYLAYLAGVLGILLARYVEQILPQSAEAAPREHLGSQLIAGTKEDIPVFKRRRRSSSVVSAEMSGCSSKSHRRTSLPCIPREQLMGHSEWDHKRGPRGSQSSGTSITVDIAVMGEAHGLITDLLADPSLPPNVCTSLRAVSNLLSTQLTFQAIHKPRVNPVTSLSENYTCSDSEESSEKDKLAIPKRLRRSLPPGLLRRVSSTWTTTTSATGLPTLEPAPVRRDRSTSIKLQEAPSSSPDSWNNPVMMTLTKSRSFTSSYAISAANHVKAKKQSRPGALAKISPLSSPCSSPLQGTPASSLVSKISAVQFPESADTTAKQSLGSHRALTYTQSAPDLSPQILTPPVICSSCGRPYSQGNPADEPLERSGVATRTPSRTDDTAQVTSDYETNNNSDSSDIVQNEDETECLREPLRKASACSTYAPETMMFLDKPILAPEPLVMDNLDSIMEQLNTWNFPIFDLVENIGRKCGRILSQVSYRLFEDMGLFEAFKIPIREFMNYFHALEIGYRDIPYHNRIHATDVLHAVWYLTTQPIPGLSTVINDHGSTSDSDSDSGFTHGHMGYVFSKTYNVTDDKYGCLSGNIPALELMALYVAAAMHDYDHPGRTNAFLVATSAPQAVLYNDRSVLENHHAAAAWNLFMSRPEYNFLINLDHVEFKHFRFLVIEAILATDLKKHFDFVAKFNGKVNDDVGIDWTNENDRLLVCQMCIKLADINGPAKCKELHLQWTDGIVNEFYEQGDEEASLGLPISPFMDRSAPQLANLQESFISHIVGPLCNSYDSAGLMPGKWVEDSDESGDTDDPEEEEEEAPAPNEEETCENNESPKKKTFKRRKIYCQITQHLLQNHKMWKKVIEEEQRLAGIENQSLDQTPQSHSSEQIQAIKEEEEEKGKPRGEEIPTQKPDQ
# Experimental: This assay is carried out essentially as described by Thompson, et al., Methods in Enzymology, 38, 205-212 (1974). Briefly, tritium labeled cyclic adenosine monophosphate (cAMP) is incubated with a phosphodiesterase (PDE) enzynme obtained from human platelets which converts a portion of the cAMP to 5'AMP in culture tubes. This reaction is terminated by submerging the tubes in a boiling water bath after which they are placed on ice and an aliquot of snake venom is added to each tube. This, during a second incubation, converts the 5'AMP to adenosine. Ion exchange resin is added to bind the remaining cyclic AMP. The tubes are centrifuged to sediment the resin and a portion of the clear supernatent (which contains radioactive adenosine) is counted in a liquid scintillation counter. The cAMP phosphodiesterase inhibition activity of a test agent is determined by pre-incubating the PDE enzyme preparation with the test agent.
# [6] = vs predose control, read-out: Maximum Percentage Change Right Ventricular Contractile Force (RVCF)
# [7] = read-out: Maximum Percentage Change Blood Pressure
Compound,EC50 [1],EC50 [2],ED50 [3],"change in vivo at 0.3 mg/kg [4, 6]","change in vivo at 0.3 mg/kg [4, 7]","change in vivo at 3 mg/kg [4, 6]","change in vivo at 3 mg/kg [4, 7]",IC50 [5],"change in vivo at 0.03 mg/kg [4, 6]","change in vivo at 0.03 mg/kg [4, 7]"
"COC(=O)CCCOc1ccc2nc3[nH]c(=O)[nH]c3cc2c1 [Example 10, Methyl 4-[(2,3-Dihydro-2-oxo-1H-imidazo[4,5-b]quinolin-7-yl)oxy]butanoate]",20 ng/mL,6 ng/mL,4.4 mg/kg,9 ± 10%,-14 ± 9%,-9 ± 1%,-14 ± 8%,400 nM,,
"O=C(CCCOc1ccc2nc3[nH]c(=O)[nH]c3cc2c1)NC12CC3CC(CC(C3)C1)C2 [Example 16, 4-[(2,3-Dihydro-2-oxo-1H-imidazo[4,5-b]quinolin-7-yl)oxy]-N-(tricyclo[3.3.1^3,7]decan-7-yl)butanamide]",50 ng/mL,20 ng/mL,4 mg/kg,,,6 ± 3%,-10 ± 4%,1 nM,,
"COC(=O)CN(C(=O)CCCOc1ccc2nc3[nH]c(=O)[nH]c3cc2c1)C1CCCCC1 [Example 21, N-Cyclohexyl-N-[4-[(2,3-dihydro-2-oxo-1H-imidazo[4,5-b]quinolin-7-yl)oxy]-1-oxobutyl]glycine Methyl Ester]",2.5 ng/mL,0.8 ng/mL,< 3 mg/kg,,,26%,-26%,0.5 nM,,
"CN(C(=O)CCCOc1ccc2nc3[nH]c(=O)[nH]c3cc2c1)C1CCCCC1 [Example 30, N-Cyclohexyl-N-methyl-4-[(2,3-dihydro-2-oxo-1H-imidazo[4,5-b]quinolin-7-yl)oxy]butanamide]",2 ng/mL,1 ng/mL,2.4 mg/kg,41 ± 5%,-27 ± 6%,35 ± 2%,-30 ± 2%,2 nM,8 ± 2%,-3%
"CN(C(=O)CCCOc1ccc2nc3nc(O)n(C)c3cc2c1)C1CCCCC1 [Example 31, N-Cyclohexyl-N-methyl-4-[(2,3-dihydro-1-methyl-2-oxo-1H-imidazo[4,5-b]quinolin-7-yl]oxo]butanamide]",20 ng/mL,18 ng/mL,2.1 mg/kg,0%,-28 ± 5%,3 ± 6%,-36 ± 3%,200 nM,,
"CN(C(=O)CCCCOc1ccc2nc3[nH]c(=O)[nH]c3cc2c1)C1CCCCC1 [Example 32, N-Cyclohexyl-N-methyl-5-[(2,3-dihydro-2-oxo-1H-imidazo[4,5-b]quinolin-7-yl)oxo]pentanamide]",3 ng/mL,0.8 ng/mL,3.8 mg/kg,18 ± 4%,-27 ± 10%,,,2 nM,,
"CN(C(=O)CCCCOc1ccc2nc3[nH]c(=O)[nH]c3cc2c1)C1CCCCCC1 [Example 33, N-Cycloheptyl-N-methyl-5-[(2,3-dihydro-2-oxo-1H-imidazo[4,5-b]quinolin-7-yl)oxy]pentanamide]",2 ng/mL,0.6 ng/mL,1.7 mg/kg,27 ± 8%,-34 ± 2%,,,0.4 nM,,
